Patent publication US20240384350A1, “METHODS OF TREATING CANCER WITH KINASE INHIBITORS” (BOARD OF REGENTS, THE UNIVERSITY OF TEXAS SYSTEM, priority 2021, published 2024)

How the values were obtained:
Assay in all cases: Ba/F3 drug screening, Cell Titer Glo, IC50 Mut/WT
Format in all cases: cell-based
[1] = target: T1, EGFR L747_K754del insATSPE (Homo sapiens, UniProt P00533, DEL747-749/K754E); details: T790M-like-3S, 72 hours
T1 construct: expressed in transfected cells; host or cells: Ba/F3 cells, retroviral pBabe-Puro vector
Description: (§1) Data represent the ratio of the IC50 value for a given TKI for cells with a T790M-like-3S EGFR mutation to the IC50 value for cells with wildtype EGFR.
(§2) Ba/F3 cell generation, drug screening, and IC50 approximations. Ba/F3 cells were obtained as a gift from Dr. Gordon Mills (MD Anderson Cancer Center), and maintained in RPMI (Sigma) containing 10% FBS, 1% penicillin/streptomycin, and 10 ng/ml recombinant mIL-3 (R&D Biosystems). To establish stable Ba/F3 cell lines, Ba/F3 cells were transduced with retroviruses containing mutant EGFR plasmids for 12-24 hours.
(§3) After 48-72 hours of transduction, 2 μg/ml puromycin (Invitrogen) was added to Ba/F3 cell lines in complete RPMI. To select for EGFR positive cell lines, cells were stained with PE-EGFR (Biolegend) and sorted by FACS. After sorting, EGFR positive cells were maintained in RPMI containing 10% FBS, 1% penicillin/streptomycin, and 1 ng/ml EGF to support cell viability. Drug screening was performed as previously described^41,42. Shortly, cells were plated in 384-well plates (Greiner Bio-One) at 2000-3000 cells per well in technical triplicate. Seven different concentrations of TKIs or DMSO vehicle were added to reach a final volume of 40 μL per well. After 72 hours, 11 μL of Cell Titer Glo (Promega) was added to each well. Plates were incubated for a minimum of 10 minutes, and bioluminescence was determined using a FLUOstar OPTIMA plate reader (BMG LABTECH). Raw bioluminescence values were normalized to DMSO control treated cells, and values were plotted in GraphPad Prism. […] Drug screens were performed in technical triplicate on each plate and either duplicate or triplicate biological replicates.

EGFR N771dupN = target: T2, EGFR N771dupN (Homo sapiens, UniProt P00533, DUP771-771); details: Ex20, 72 hours
T2 construct: expressed in transfected cells; host or cells: Ba/F3 cells, retroviral pBabe-Puro vector

EGFR L858R T790M L792H = target: T3, EGFR L858R T790M L792H (Homo sapiens, UniProt P00533, L792H/L858R/T790M); details: T790M-like-3S, 72 hours
T3 construct: expressed in transfected cells; host or cells: Ba/F3

EGFR A763insFQEA = target: T4, EGFR A763insFQEA (Homo sapiens, UniProt P00533, INS763FQEA); details: Classical-Like, 72 hours
T4 construct: expressed in transfected cells; host or cells: Ba/F3 cells, retroviral pBabe-Puro vector
Description: Data represent the ratio of the IC50 value for a given TKI for cells with a classical-like EGFR mutation to the IC50 value for cells with wildtype EGFR.
as §2
After 48-72 hours of transduction, 2 μg/ml puromycin (Invitrogen) was added to Ba/F3 cell lines in complete RPMI. To select for EGFR positive cell lines, cells were stained with PE-EGFR (Biolegend) and sorted by FACS. After sorting, EGFR positive cells were maintained in RPMI containing 10% FBS, 1% penicillin/streptomycin, and 1 ng/ml EGF to support cell viability. […] Shortly, cells were plated in 384-well plates (Greiner Bio-One) at 2000-3000 cells per well in technical triplicate. Seven different concentrations of TKIs or DMSO vehicle were added to reach a final volume of 40 μL per well. After 72 hours, 11 μL of Cell Titer Glo (Promega) was added to each well. Plates were incubated for a minimum of 10 minutes, and bioluminescence was determined using a FLUOstar OPTIMA plate reader (BMG LABTECH). Raw bioluminescence values were normalized to DMSO control treated cells, and values were plotted in GraphPad Prism. […] Drug screens were performed in technical triplicate on each plate and either duplicate or triplicate biological replicates.

EGFR L833V = target: T5, EGFR L833V (Homo sapiens, UniProt P00533, L833V); details: Classical-Like, 72 hours
T5 construct: expressed in transfected cells; host or cells: Ba/F3 cells, retroviral pBabe-Puro vector

EGFR S768I/T790M = target: T6, EGFR S768I/T790M (Homo sapiens, UniProt P00533, S768I/T790M); details: T790M-like-3S, 72 hours
T6 construct: expressed in transfected cells; host or cells: Ba/F3

EGFR L718Q = target: T7, EGFR L718Q (Homo sapiens, UniProt P00533, L718Q); details: Ba/F3 cells, EGFR L718Q (PACC), Mut/WT
T7 construct: expressed in transfected cells; host or cells: Ba/F3

EGFR R776C = target: T8, EGFR R776C (Homo sapiens, UniProt P00533, R776C); details: Ba/F3 cells, EGFR R776C (PACC), Mut/WT
T8 construct: host or cells: Ba/F3
Description: (§4) Data represent the ratio of the IC50 value for a given TKI for cells with a PACC EGFR mutation to the IC50 value for cells with wildtype EGFR.
as §2, §3

EGFR L861R = target: T9, EGFR L861R (Homo sapiens, UniProt P00533, L861R); details: Classical-Like, 72 hours
T9 construct: expressed in transfected cells; host or cells: Ba/F3 cells, retroviral pBabe-Puro vector (vector made by GeneScript from EGFR WT)

EGFR A767insASV = target: T10, EGFR A767insASV (Homo sapiens, UniProt P00533, DUP767-769); details: Ex20, 72 hours
T10 construct: expressed in transfected cells; host or cells: Ba/F3 cells, retroviral pBabe-Puro vector

EGFR L718V = target: T11, EGFR L718V (Homo sapiens, UniProt P00533, L718V); details: Ba/F3 cells, EGFR L718V (PACC), Mut/WT
T11 construct: expressed in transfected cells; host or cells: Ba/F3
Description: as §4, §2, §3

EGFR L858R L718Q = target: T12, EGFR L858R L718Q (Homo sapiens, UniProt P00533, L718Q/L858R); details: Ba/F3 cells, EGFR L858R L718Q (PACC), Mut/WT
T12 construct: host or cells: Ba/F3
Description: as §4, §2, §3

EGFR Ex19del L718Q = target: T13, EGFR Ex19del L718Q (Homo sapiens, UniProt P00533, DEL746-750/L718Q); details: Ba/F3 cells, EGFR Ex19del L718Q (PACC), Mut/WT
T13 construct: expressed in transfected cells; host or cells: Ba/F3
Description: as §4, §2, §3

EGFR L858R G724S = target: T14, EGFR L858R G724S (Homo sapiens, UniProt P00533, G724S/L858R); details: Ba/F3 cells, EGFR L858R G724S (PACC), Mut/WT
T14 construct: expressed in transfected cells; host or cells: Ba/F3 (retroviral transduction, pBabe-Puro based vectors)

EGFR S811F = target: T15, EGFR S811F (Homo sapiens, UniProt P00533, S811F); details: Classical-Like, 72 hours
T15 construct: expressed in transfected cells; host or cells: Ba/F3 cells, retroviral pBabe-Puro vector (vector made by GeneScript from EGFR WT)

EGFR L858R/T790M/L718Q = target: T16, EGFR L858R/T790M/L718Q (Homo sapiens, UniProt P00533, L718Q/L858R/T790M); details: T790M-like-3R, 72 hours
T16 construct: expressed in transfected cells; host or cells: Ba/F3
Description: (§5) Data represent the ratio of the IC50 value for a given TKI for cells with a T790M-like-3R EGFR mutation to the IC50 value for cells with wildtype EGFR.
as §2
(§6) After 48-72 hours of transduction, 2 μg/ml puromycin (Invitrogen) was added to Ba/F3 cell lines in complete RPMI. To select for EGFR positive cell lines, cells were stained with PE-EGFR (Biolegend) and sorted by FACS. After sorting, EGFR positive cells were maintained in RPMI containing 10% FBS, 1% penicillin/streptomycin, and 1 ng/ml EGF to support cell viability. […] Shortly, cells were plated in 384-well plates (Greiner Bio-One) at 2000-3000 cells per well in technical triplicate. Seven different concentrations of TKIs or DMSO vehicle were added to reach a final volume of 40 μL per well. After 72 hours, 11 μL of Cell Titer Glo (Promega) was added to each well. Plates were incubated for a minimum of 10 minutes, and bioluminescence was determined using a FLUOstar OPTIMA plate reader (BMG LABTECH). Raw bioluminescence values were normalized to DMSO control treated cells, and values were plotted in GraphPad Prism. […] Drug screens were performed in technical triplicate on each plate and either duplicate or triplicate biological replicates. […] Statistical differences between groups were determined by ANOVA as described in the figure legends.

EGFR T790M = target: T17, EGFR T790M (Homo sapiens, UniProt P00533, T790M); details: T790M-like-3S, 72 hours
T17 construct: expressed in transfected cells; host or cells: Ba/F3
Description: as §1, §2, §3

EGFR Ex19del/T790M/G724S = target: T18, EGFR Ex19del/T790M/G724S (Homo sapiens, UniProt P00533, DEL746-750/G724S/T790M); details: T790M-like-3S, 72 hours
T18 construct: expressed in transfected cells; host or cells: Ba/F3
Description: as §1, §2, §3

EGFR G719A = target: T19, EGFR G719A (Homo sapiens, UniProt P00533, G719A); details: Ba/F3 cells, EGFR G719A (PACC), Mut/WT
T19 construct: expressed in transfected cells; host or cells: Ba/F3

EGFR L858R T790M L718V = target: T20, EGFR L858R T790M L718V (Homo sapiens, UniProt P00533, L718V/L858R/T790M); details: T790M-like-3R, 72 hours
T20 construct: expressed in transfected cells; host or cells: Ba/F3
Description: as §5, §2, §6

EGFR L858R/T790M = target: T21, EGFR L858R/T790M (Homo sapiens, UniProt P00533, L858R/T790M); details: T790M-like-3S, 72 hours
T21 construct: expressed in transfected cells; host or cells: Ba/F3

EGFR A763insLQEA = target: T22, EGFR A763insLQEA (Homo sapiens, UniProt P00533, INS763LQEA); details: Classical-Like, 72 hours
T22 construct: expressed in transfected cells; host or cells: Ba/F3 cells, retroviral pBabe-Puro vector

EGFR G719A L861Q = target: T23, EGFR G719A L861Q (Homo sapiens, UniProt P00533, G719A/L861Q); details: Ba/F3 cells, EGFR G719A L861Q (PACC), Mut/WT
T23 construct: expressed in transfected cells; host or cells: Ba/F3
Description: as §4, §2, §3

EGFR Ex19del/C797S = target: T24, EGFR Ex19del/C797S (Homo sapiens, UniProt P00533, C797S/DEL746-750); details: Ba/F3 cells, EGFR Ex19del/C797S (PACC), Mut/WT
T24 construct: expressed in transfected cells; host or cells: Ba/F3

EGFR G724S T790M = target: T25, EGFR G724S T790M (Homo sapiens, UniProt P00533, G724S/T790M); details: T790M-like-3R, 72 hours
T25 construct: expressed in transfected cells; host or cells: Ba/F3

EGFR E709_T710del insD = target: T26, EGFR E709_T710del insD (Homo sapiens, UniProt P00533, DEL709-709/T710D); details: Ba/F3 cells, EGFR E709_T710del insD (PACC), Mut/WT
T26 construct: expressed in transfected cells; host or cells: Ba/F3
Description: as §4, §2, §3

EGFR E709K G719S = target: T27, EGFR E709K G719S (Homo sapiens, UniProt P00533, E709K/G719S); details: Ba/F3 cells, EGFR E709K G719S (PACC), Mut/WT
T27 construct: expressed in transfected cells; host or cells: Ba/F3

C=CC(=O)Nc1cccc(Oc2nc(Nc3ccc(N4CCN(C)CC4)cc3)nc3ccsc23)c1 [Olmutinib]
ratio of IC50 for cells with mutant EGFR to IC50 for cells with wildtype EGFR (Mut/WT) [1]: 0.0001357 | ratio of IC50 for cells with mutant EGFR to IC50 for cells with wildtype EGFR (Mut/WT) (EGFR N771dupN): 0.4208 | ratio of IC50 for cells with mutant EGFR to IC50 for cells with wildtype EGFR (Mut/WT) (EGFR L858R T790M L792H): 0.004757 | ratio of IC50 for cells with mutant EGFR to IC50 for cells with wildtype EGFR (Mut/WT) (EGFR A763insFQEA): 0.02753 | ratio of IC50 for cells with mutant EGFR to IC50 for cells with wildtype EGFR (Mut/WT) (EGFR L833V): 0.03803 | ratio of IC50 for cells with mutant EGFR to IC50 for cells with wildtype EGFR (Mut/WT) (EGFR S768I/T790M): 0.0215 | ratio of the IC50 value for cells with a PACC EGFR mutation to the IC50 value for cells with wildtype EGFR (EGFR L718Q): 3.977 | ratio of the IC50 value for cells with a PACC EGFR mutation to the IC50 value for cells with wildtype EGFR (EGFR R776C): 0.5131 | ratio of IC50 for cells with mutant EGFR to IC50 for cells with wildtype EGFR (Mut/WT) (EGFR L861R): 0.02937 | ratio of IC50 for cells with mutant EGFR to IC50 for cells with wildtype EGFR (Mut/WT) (EGFR A767insASV): 0.6792 | ratio of the IC50 value for cells with a PACC EGFR mutation to the IC50 value for cells with wildtype EGFR (EGFR L718V): 0.139 | ratio of the IC50 value for cells with a PACC EGFR mutation to the IC50 value for cells with wildtype EGFR (EGFR L858R L718Q): 2.324 | ratio of the IC50 value for cells with a PACC EGFR mutation to the IC50 value for cells with wildtype EGFR (EGFR Ex19del L718Q): 0.03389 | ratio of the IC50 value for cells with a PACC EGFR mutation to the IC50 value for cells with wildtype EGFR (EGFR L858R G724S): 0.02052 | ratio of IC50 for cells with mutant EGFR to IC50 for cells with wildtype EGFR (Mut/WT) (EGFR S811F): 0.0307 | ratio of IC50 for cells with mutant EGFR to IC50 for cells with wildtype EGFR (Mut/WT) (EGFR L858R/T790M/L718Q): 0.6196 | ratio of IC50 for cells with mutant EGFR to IC50 for cells with wildtype EGFR (Mut/WT) (EGFR T790M): 0.04611 | ratio of IC50 for cells with mutant EGFR to IC50 for cells with wildtype EGFR (Mut/WT) (EGFR Ex19del/T790M/G724S): 0.005075 | ratio of the IC50 value for cells with a PACC EGFR mutation to the IC50 value for cells with wildtype EGFR (EGFR G719A): 0.141 | ratio of IC50 for cells with mutant EGFR to IC50 for cells with wildtype EGFR (Mut/WT) (EGFR L858R T790M L718V): 0.8754 | ratio of IC50 for cells with mutant EGFR to IC50 for cells with wildtype EGFR (Mut/WT) (EGFR L858R/T790M): 0.0007936 | ratio of IC50 for cells with mutant EGFR to IC50 for cells with wildtype EGFR (Mut/WT) (EGFR A763insLQEA): 0.07483 | ratio of the IC50 value for cells with a PACC EGFR mutation to the IC50 value for cells with wildtype EGFR (EGFR G719A L861Q): 0.07388 | ratio of the IC50 value for cells with a PACC EGFR mutation to the IC50 value for cells with wildtype EGFR (EGFR Ex19del/C797S): 2.14 | ratio of IC50 for cells with mutant EGFR to IC50 for cells with wildtype EGFR (Mut/WT) (EGFR G724S T790M): 0.01985 | ratio of the IC50 value for cells with a PACC EGFR mutation to the IC50 value for cells with wildtype EGFR (EGFR E709_T710del insD): 0.2299 | ratio of the IC50 value for cells with a PACC EGFR mutation to the IC50 value for cells with wildtype EGFR (EGFR E709K G719S): 0.3569
